Test results published in publication PMC3836566 (Chemical research in toxicology, 2013).
Entries after “also recorded” stand apart in the source; their conditions may differ.

Key:
[1] = molecular target: thyroid hormone sulfotransferase activity in pooled human liver cytosol; assay: Inhibition of 3,3′-T2 sulfotransferase activity; details: for IC50: read-out: IC50 (nM) (95% CI) for the inhibition of 3,3′-T2S formation, 1 μM 3,3′-T2, 0.25 mg protein/ml pooled human liver cytosol, 50 μM PAPS, 30 min, 37°C; for inhibition of 3,3′-T2 sulfation (result in words): range of concentrations tested 10–1000 nM
[2] = test system: thyroid hormone sulfotransferase activity in pooled human liver cytosol; assay: Mechanism of 3,3′-T2 sulfotransferase inhibition; assay type: biochemical; details: 3,3′-T2 0–5000 nM with varying 4-OH BDE 90; Vmax lower, apparent Km unchanged
[3] = test system: thyroid hormone sulfotransferase activity in pooled human liver cytosol; assay: 3,3′-T2 sulfation kinetics in pooled human liver cytosol; assay type: biochemical
[4] = test system: thyroid hormone sulfotransferase activity; assay: as above; assay type: biochemical; details: human, pooled human liver cytosol
[5] = test system: SULT1A1; details: read-out: Km of 3,3′-T2 for SULT1A1; cited from earlier work
[6] = test system: SULT1A3; details: read-out: Km of 3,3′-T2 for SULT1A3; cited from earlier work
[7] = test system: SULT2A1; details: read-out: Km of 3,3′-T2 for SULT2A1; cited from earlier work
[8] = test system: SULT1E1; details: read-out: Km of 3,3′-T2 for SULT1E1; cited from earlier work

Compound | IC50 [1] [nM] | other results
CC(C)(c1cc(Br)c(O)c(Br)c1)c1cc(Br)c(O)c(Br)c1 [TBBPA, tetrabromobisphenol A] | 460 | 
Oc1c(Br)cc(Oc2ccc(Br)cc2Br)c(Br)c1Br [4-OH BDE 90, 4-OH 2,2′,3,4′,5-pentaBDE] | 24 | inhibition mechanism [2]: non-competitive
Oc1cc(Br)cc(Br)c1Oc1ccc(Br)cc1Br [6-OH BDE 47, 6-OH 2,2′,4,4′-tetraBDE] | 130 | 
Oc1cc(Oc2ccc(Br)cc2Br)ccc1Br [3′-OH BDE 28, 3′-OH 2,4,4′-triBDE] | 190 | 
Oc1ccccc1Oc1ccc(Br)cc1 [2′-OH BDE 3, 2′-OH 4-monoBDE] | 500 | 
Oc1cc(Cl)ccc1Oc1ccc(Cl)cc1Cl [Triclosan, triclosan] | 1410 | fold less potent than 3′-OH BDE 28 ([1]; 3,3′-T2 sulfotransferase inhibition potency): approximately 7 fold
Oc1cc(Oc2cc(Br)c(Br)cc2Br)c(Br)cc1Br [5′-OH BDE 99, 5′-OH 2,2′,4,4′,5-pentaBDE] | 520 | 
CC(C)(c1cc(I)c(O)c(I)c1)c1cc(I)c(O)c(I)c1 [TIBPA, 3,3′,5,5′-tetraiodobisphenol A] | 13200 | 
Oc1cc(Br)cc(Br)c1Oc1cc(Br)c(Br)cc1Br [6′-OH BDE 99, 6′-OH 2,2′,4,4′,5-pentaBDE] | 310 | 
Oc1c(F)cc(F)cc1F [2,4,6-TFP, 2,4,6-trifluorophenol] | 4.6 | 
Oc1c(Br)cc(Br)cc1Br [2,4,6-TBP, 2,4,6-tribromophenol] | 8.3 | 
N[C@@H](Cc1ccc(Oc2ccc(O)c(I)c2)c(I)c1)C(=O)O [3,3′-T2, 3,3′-diiodothyronine] |  | 3,3′-T2S formation rate under standard conditions ([3]; 1 μM 3,3′-T2, 30 min incubation, 0.25 mg protein/ml): 70–80 pmol/min.mg protein; Vmax for 3,3′-T2 sulfate formation ([3]; pooled human liver cytosol 0.25 mg protein/ml, 30 min): 153 ± 6.6 pmol/min.mg protein; Km ([3]; read-out: apparent Km for the 3,3′-T2 sulfation reaction, pooled human liver cytosol 0.25 mg protein/ml, 30 min): 1.07 ± 0.12 µM; microsomal CLint [4]: 145 µL/min/mg; Km [5]: 0.12 µM; Km [6]: 31 to 35 µM; Km [7]: 3 µM; Km [8]: 3.5 to 9.7 µM
Oc1cc(Oc2ccc(Br)cc2Br)c(Br)cc1Br [5-OH BDE 47, 5-OH 2,2′,4,4′-tetraBDE] | 400 | 
Oc1cccc(Oc2ccc(Br)cc2Br)c1 [3′-OH BDE 7, 3′-OH 2,4-diBDE] | 410 | 
Oc1cc(Br)c(Oc2cc(Br)c(Br)cc2Br)cc1Br [4′-OH BDE 101, 4′-OH 2,2′,4,5, 5′-pentaBDE] | 640 | 
Oc1cc(Br)c(Oc2ccc(Br)cc2Br)cc1Br [4′-OH BDE 49, 4′-OH 2,2′,4,5′-tetraBDE] | 650 | 
Oc1ccc(C(c2ccc(O)cc2)(C(F)(F)F)C(F)(F)F)cc1 [BPA-AF, 4,4′-(hexafluoroisopropylidene)diphenol] | 8590 | 
Oc1c(Br)c(Br)c(Oc2c(Br)cc(Br)c(Br)c2Br)c(Br)c1Br [4′-OH BDE 201, 4′-OH 2,2′,3,3′,4,5′,6,6′-octaBDE] | 510 | 
Oc1c(Br)ccc(Oc2ccc(Br)cc2Br)c1Br [3-OH BDE 47, 3-OH 2,2′,4,4′-tetraBDE] | 60 | 
Oc1c(I)cc(I)cc1I [2,4,6-TIP, 2,4,6-triiodophenol] | 140 | 
Oc1c(Br)cc(Br)c(Oc2cc(Br)c(Br)cc2Br)c1Br [3′-OH BDE 154, 3-OH 2,2′,4,4′,5,6′-hexaBDE] | 80 | 
CC(C)(c1cc(Cl)c(O)c(Cl)c1)c1cc(Cl)c(O)c(Cl)c1 [TCBPA, 3,3′,5,5′-tetrachlorobisphenol A] | 340 | 
Brc1ccc(Oc2ccc(Br)cc2Br)c(Br)c1 [BDE 47, 2,2′,4,4′-tetrabromodiphenyl ether] |  | inhibition of 3,3′-T2 sulfation (result in words) [1]: did not inhibit 3,3′-T2 sulfation; also recorded: did not show inhibition; inhibition of 3,3′-T2 sulfation (result in words) ([1]; listed as BDE-47): did not show sulfotransferase inhibition
